Like-named read-outs stand apart in the source and are kept apart here.
What was measured:
EGFR[T790M/C797S/L858R] = target: T1, EGFR[T790M/C797S/L858R] (Homo sapiens, UniProt P00533, C797S/L858R/T790M); assay: Inhibition of EGFR[T790M/C797S/L858R] biochemical enzymatic activity (HTRF); settings: EGFR T790M-C797S-L858R, 1 mM ATP, 1 h, room temperature, read-out: IC50 (nM) @T790M- C797S - L858R
T1 construct: purchased Carna Bio
In short: (§1)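 Each enzyme was first added to plates holding compound. The reaction was then started with ATP (1 mM) and peptide substrate (1 μM). It was stopped after 1 h at room temperature with EDTA detection reagents and read at 615/665 nm to derive IC50s.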

EGFR Exon19Del = target: T2, EGFR Exon19Del (Homo sapiens, UniProt P00533, DEL746-750); assay: Inhibition of EGFR Exon19Del biochemical enzymatic activity (HTRF); settings: EGFR Del19, 1 mM ATP, 1 h, room temperature, read-out: IC50 @Del19
T2 construct: purchased Carna Bio
In short: as §1

EGFR (d746-750 C797S) = target: T3, EGFR (d746-750 C797S) (Homo sapiens, UniProt P00533, C797S/DEL746-750); assay: Inhibition of EGFR (d746-750 C797S) biochemical enzymatic activity (HTRF); settings: EGFR Del19-C797S, 1 mM ATP, 1 h, room temperature, read-out: IC50 (nM) @Del19-C797S
T3 construct: purchased signalchem
In short: as §1

EGFR L858R/T790M = target: T4, EGFR L858R/T790M (Homo sapiens, UniProt P00533, L858R/T790M); assay: Inhibition of EGFR L858R/T790M biochemical enzymatic activity (HTRF); settings: EGFR L858R-T790M, 1 mM ATP, 1 h, room temperature, read-out: IC50 (nM) @L858R-T790M
T4 construct: purchased Carna Bio
In short: as §1

PC-9 = assay: Cell proliferation assay, PC-9 cells (CellTiter-Glo, 72 hours); assay type: cell-based; settings: PC9 cells, CellTiter-Glo, read-out: PC9 GI50
In short: (§2)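 Ba/F3 cells carrying EGFR mutants (5000/well) or PC-9 cells (500/well) in RPMI1640 were dosed with compound series after overnight attachment and grown 72 h. Viability read by CellTiter-Glo, with day-0 counts subtracted; GI50 from curve fits of % proliferation versus DMSO control.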

A-431 = assay: Cell proliferation GI50, A-431 cells (Table 6); assay type: cell-based
EGFR wild type = target: T5, EGFR wild type (Homo sapiens, UniProt P00533); assay: Inhibition of EGFR wild type biochemical enzymatic activity (HTRF); settings: EGFR WT, 1 mM ATP, 1 h, room temperature, read-out: IC50 (nM) @WT
T5 construct: purchased Carna Bio
In short: as §1

[1] = test system: Ba/F3 cells expressing EGFR mutations; assay: Cell proliferation assay, Ba/F3 cells expressing EGFR mutations (CellTiter-Glo, 72 hours); assay type: cell-based; settings: CellTiter-Glo
In short: as §2

EGFR L858R = target: T6, EGFR L858R (Homo sapiens, UniProt P00533, L858R); assay: Inhibition of EGFR L858R biochemical enzymatic activity (HTRF); settings: 1 mM ATP, 1 h, room temperature, read-out: IC50 (nM) @L858R
T6 construct: purchased Carna Bio
In short: as §1

EGFR (C797S L858R) = target: T7, EGFR (C797S L858R) (Homo sapiens, UniProt P00533, C797S/L858R); assay: Inhibition of EGFR (C797S L858R) biochemical enzymatic activity (HTRF); settings: EGFR L858-C797S, 1 mM ATP, 1 h, room temperature, read-out: IC50 (nM) @L858-C797S
T7 construct: purchased signalchem
In short: as §1

EGFR Exon19Del/T790M = target: T8, EGFR Exon19Del/T790M (Homo sapiens, UniProt P00533, DEL746-750/T790M); assay: Inhibition of EGFR Exon19Del/T790M biochemical enzymatic activity (HTRF); settings: EGFR Del19-T790M, 1 mM ATP, 1 h, room temperature, read-out: IC50 (nM) @Del19-T790M
T8 construct: purchased Carna Bio
In short: as §1

[2] = target: T9, EGFR[T790M/C797S/d746-750] (Homo sapiens, UniProt P00533, C797S/DEL746-750/T790M); assay: Inhibition of EGFR[T790M/C797S/d746-750] biochemical enzymatic activity (HTRF); settings: EGFR T790M-C797S-Del19, 1 mM ATP, 1 h, room temperature, read-out: IC50 (nM) @T790M - C797S - Del19
T9 construct: purchased Carna Bio
In short: as §1

[3] = BaF3 cells, EGFR DEL19-T790-C797S, read-out: DEL19-T790-C797S/BaF3 GI50
[4] = BaF3 cells, EGFR L858R, read-out: L858R/BaF3 GI50
[5] = BaF3 cells, EGFR L858R-T790-C797S, read-out: L858R-T790-C797S/BaF3 GI50
[6] = BaF3 cells, EGFR L858R-T790M, read-out: L858R-T790M/BaF3 GI50
[7] = EGFR DEL19-T790M, read-out: DEL19-T790M GI50
[8] = BaF3 cells, EGFR DEL19-C797S, read-out: DEL19-C797S/BaF3 GI50
[9] = BaF3 cells, EGFR L858R-C797S, read-out: L858R-C797S/BaF3 GI50
[10] = Homo sapiens, A-431, A-431 cells

T7 sequence (P00533 25-1210 C797S/L858R): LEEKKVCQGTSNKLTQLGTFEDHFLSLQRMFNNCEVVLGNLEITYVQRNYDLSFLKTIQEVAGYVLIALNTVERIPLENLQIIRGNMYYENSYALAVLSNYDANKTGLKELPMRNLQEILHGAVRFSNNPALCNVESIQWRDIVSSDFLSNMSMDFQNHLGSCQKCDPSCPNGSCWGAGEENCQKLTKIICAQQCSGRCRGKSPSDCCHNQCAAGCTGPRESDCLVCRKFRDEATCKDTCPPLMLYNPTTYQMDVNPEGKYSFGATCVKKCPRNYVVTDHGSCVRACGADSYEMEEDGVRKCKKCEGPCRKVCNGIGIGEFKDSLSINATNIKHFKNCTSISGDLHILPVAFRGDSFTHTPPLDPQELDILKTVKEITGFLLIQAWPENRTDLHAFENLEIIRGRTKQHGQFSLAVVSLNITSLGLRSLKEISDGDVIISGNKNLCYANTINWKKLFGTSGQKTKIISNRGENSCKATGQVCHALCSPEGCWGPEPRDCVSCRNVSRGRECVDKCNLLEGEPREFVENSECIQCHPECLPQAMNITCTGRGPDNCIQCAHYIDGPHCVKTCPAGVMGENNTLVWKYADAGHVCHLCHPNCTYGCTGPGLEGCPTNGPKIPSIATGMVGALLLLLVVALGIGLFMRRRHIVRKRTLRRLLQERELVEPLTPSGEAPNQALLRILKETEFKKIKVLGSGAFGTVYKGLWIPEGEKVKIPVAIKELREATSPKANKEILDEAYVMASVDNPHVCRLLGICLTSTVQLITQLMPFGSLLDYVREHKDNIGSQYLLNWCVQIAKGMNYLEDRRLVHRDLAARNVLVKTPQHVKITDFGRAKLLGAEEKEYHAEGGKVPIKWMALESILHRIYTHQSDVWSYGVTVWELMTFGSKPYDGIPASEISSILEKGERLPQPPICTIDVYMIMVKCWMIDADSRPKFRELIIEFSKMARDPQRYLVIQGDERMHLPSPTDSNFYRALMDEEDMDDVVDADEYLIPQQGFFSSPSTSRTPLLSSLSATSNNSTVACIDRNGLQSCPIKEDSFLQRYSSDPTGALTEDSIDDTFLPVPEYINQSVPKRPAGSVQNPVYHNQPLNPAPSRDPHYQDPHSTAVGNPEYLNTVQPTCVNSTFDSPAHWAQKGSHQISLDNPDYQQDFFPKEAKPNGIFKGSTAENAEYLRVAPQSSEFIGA
T6 sequence (P00533 25-1210 L858R): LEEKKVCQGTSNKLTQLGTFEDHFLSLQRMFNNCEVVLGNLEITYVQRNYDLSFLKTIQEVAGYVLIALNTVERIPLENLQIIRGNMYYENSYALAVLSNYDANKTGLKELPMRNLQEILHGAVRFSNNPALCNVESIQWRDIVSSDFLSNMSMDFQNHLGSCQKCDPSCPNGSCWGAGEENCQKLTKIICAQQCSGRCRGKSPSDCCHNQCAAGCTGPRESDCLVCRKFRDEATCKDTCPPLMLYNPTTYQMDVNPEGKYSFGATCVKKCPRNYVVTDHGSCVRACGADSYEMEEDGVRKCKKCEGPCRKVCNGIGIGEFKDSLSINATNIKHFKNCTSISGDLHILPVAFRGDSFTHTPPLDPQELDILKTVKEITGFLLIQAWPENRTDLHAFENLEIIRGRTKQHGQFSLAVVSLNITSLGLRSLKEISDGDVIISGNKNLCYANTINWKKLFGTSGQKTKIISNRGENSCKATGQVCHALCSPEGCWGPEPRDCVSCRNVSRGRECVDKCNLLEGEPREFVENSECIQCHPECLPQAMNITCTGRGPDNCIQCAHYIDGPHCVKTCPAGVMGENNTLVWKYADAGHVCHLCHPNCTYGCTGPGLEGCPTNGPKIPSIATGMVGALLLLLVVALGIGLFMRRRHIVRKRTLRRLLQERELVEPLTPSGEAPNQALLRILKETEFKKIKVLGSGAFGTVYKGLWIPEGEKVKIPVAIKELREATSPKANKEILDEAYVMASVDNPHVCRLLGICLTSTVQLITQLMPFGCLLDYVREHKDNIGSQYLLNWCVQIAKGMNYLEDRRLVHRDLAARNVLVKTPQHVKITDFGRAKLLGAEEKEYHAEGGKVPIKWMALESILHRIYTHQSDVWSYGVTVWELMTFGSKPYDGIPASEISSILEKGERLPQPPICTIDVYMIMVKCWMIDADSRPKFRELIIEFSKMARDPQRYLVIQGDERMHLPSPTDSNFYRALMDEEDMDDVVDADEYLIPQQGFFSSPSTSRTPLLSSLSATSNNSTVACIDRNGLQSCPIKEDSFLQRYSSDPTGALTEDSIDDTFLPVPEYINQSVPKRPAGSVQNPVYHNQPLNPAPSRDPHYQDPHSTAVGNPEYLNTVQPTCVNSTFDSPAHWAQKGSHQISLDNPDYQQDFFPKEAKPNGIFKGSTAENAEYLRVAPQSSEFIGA
T1 sequence (P00533 25-1210 T790M/C797S/L858R): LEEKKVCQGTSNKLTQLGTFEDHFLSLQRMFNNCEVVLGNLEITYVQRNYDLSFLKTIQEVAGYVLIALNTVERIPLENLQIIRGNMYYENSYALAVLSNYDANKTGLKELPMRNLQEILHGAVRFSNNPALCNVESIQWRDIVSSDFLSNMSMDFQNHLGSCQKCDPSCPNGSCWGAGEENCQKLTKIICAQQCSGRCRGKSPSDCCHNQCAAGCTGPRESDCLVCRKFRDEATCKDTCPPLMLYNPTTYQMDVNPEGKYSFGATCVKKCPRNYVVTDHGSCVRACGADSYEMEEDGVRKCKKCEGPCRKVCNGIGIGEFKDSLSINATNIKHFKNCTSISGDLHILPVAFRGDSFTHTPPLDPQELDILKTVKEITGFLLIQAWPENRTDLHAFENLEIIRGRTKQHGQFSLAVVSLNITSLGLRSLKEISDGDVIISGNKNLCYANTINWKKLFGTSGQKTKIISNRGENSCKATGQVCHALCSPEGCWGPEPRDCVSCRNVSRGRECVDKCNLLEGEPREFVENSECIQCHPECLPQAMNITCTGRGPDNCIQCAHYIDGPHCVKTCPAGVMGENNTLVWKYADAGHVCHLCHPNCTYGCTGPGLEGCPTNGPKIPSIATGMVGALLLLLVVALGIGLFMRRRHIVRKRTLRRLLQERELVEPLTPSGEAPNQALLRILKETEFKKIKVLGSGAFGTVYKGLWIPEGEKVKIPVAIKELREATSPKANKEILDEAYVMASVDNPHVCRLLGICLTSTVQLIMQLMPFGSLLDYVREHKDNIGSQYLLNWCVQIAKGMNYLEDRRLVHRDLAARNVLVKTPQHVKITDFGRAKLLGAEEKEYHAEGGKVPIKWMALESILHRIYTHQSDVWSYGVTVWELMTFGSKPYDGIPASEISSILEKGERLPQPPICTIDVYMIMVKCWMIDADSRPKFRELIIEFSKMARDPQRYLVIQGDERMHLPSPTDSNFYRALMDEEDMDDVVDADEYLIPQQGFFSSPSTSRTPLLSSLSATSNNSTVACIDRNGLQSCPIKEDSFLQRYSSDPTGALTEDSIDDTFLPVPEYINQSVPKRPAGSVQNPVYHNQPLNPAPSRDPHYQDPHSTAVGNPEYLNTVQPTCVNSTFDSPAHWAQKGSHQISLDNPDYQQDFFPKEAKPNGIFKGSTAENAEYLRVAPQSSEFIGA
T5 sequence (P00533 25-1210): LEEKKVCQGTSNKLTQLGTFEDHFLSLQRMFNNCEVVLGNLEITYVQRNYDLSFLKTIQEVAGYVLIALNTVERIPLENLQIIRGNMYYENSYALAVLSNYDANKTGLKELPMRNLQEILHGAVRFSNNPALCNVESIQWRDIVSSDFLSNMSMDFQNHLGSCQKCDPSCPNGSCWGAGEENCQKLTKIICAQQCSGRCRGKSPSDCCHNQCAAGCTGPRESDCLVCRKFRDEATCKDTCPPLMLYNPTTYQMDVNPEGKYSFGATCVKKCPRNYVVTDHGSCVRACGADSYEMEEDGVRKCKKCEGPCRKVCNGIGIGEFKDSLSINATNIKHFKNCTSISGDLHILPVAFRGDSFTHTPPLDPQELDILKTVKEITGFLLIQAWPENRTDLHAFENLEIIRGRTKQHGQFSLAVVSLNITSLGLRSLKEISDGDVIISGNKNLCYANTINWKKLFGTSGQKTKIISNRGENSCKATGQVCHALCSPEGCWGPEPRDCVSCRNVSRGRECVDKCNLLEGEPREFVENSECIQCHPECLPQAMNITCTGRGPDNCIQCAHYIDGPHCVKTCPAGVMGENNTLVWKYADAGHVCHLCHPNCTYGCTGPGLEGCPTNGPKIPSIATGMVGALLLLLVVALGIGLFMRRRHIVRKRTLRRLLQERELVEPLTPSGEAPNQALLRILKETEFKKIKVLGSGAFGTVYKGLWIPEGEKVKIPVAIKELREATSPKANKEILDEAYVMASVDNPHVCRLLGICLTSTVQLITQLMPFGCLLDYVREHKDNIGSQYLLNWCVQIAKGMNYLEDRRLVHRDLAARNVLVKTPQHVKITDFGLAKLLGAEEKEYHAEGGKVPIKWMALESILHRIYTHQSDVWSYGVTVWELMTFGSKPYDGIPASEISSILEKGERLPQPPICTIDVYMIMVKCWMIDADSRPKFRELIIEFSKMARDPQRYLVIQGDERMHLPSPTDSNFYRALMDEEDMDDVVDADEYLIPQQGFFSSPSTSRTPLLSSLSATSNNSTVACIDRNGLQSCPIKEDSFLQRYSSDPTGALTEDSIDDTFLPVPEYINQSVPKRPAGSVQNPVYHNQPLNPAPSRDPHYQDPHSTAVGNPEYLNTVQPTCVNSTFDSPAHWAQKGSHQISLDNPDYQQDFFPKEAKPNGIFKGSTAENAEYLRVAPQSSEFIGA

Row | IC50 (EGFR[T790M/C797S/L858R]) [nM] | IC50 (EGFR Exon19Del) [nM] | IC50 (EGFR (d746-750 C797S)) [nM] | IC50 (EGFR L858R/T790M) [nM] | GI50 (PC-9) [nM] | GI50 (A-431; A-431 cells) [nM] | IC50 (EGFR wild type) [nM] | GI50 [1, 3] [nM] | GI50 [1, 4] [nM] | GI50 [1, 5] [nM] | GI50 [1, 6] [nM] | GI50 [1, 7] [nM] | IC50 (EGFR L858R) [nM] | IC50 (EGFR (C797S L858R)) [nM] | IC50 (EGFR Exon19Del/T790M) [nM] | IC50 [2] [nM] | GI50 [1, 8] [nM] | GI50 [1, 9] [nM] | GI50 (A-431; [10]) [nM] | SMILES
1 | 9.5 | 5.2 | 6.1 | 11 | 35 | 2880 | 235 | 4.5 | 5.1 | 7.7 | 14 | 3.3 | 29 | 20 | 11 | 8.4 |  |  |  | Cn1ncc2c1OCCN1CC3CCC(C3)(C1)n1c(nc3ccc(N4CCC(N5CC(F)C5)C4)cc31)NC(=O)c1cc-2c(=O)n(C)c1 (single isomer, unassigned) [Example A94B, 5-[3-(3-Fluoroazetidin-1-yl)pyrrolidin-1-yl]-15,21-dimethyl-23-oxa-2,9,11,15,20,21,26-heptaazaheptacyclo[24.4.1.1^{1,28}.1^{13,17}.0^{2,10}.0^{3,8}.0^{18,22}]tritriaconta-3,5,7,9,13,17(33),18(22),19-octaene-12,16-dione]
2 | > 5000 | 1190 | 850 | > 5000 | 763 | 5790 | > 5000 | 527 | 129 | 124 | 1000 | 459 | 3030 | 3950 | > 5000 | > 5000 | 102 | 325 |  | CN(C)C1CCN(c2ccc3nc4n(c3c2)C23CCC(CN(CCOc5c(cnn5C)-c5cc(cn(C)c5=O)C(=O)N4)C2)C3)CC1(F)F (single isomer, unassigned) [Example A97A]
3 | 4.7 | 4.4 | 1.7 | 5.7 | 24 | 1450 | 224 | 5.6 | 2 | 3.5 | 13 | 6.4 | 14 | 8.4 | 4.9 | 4.8 | 0.76 | 3 |  | CN(C)C1CCN(c2ccc3nc4n(c3c2)C23CCC(CN(CCOc5c(cnn5C)-c5cc(cn(C)c5=O)C(=O)N4)C2)C3)CC1(F)F (single isomer, unassigned) [Example A97B]
4 | 2.3 | 1.8 | 1.3 | 2.7 | 7.6 |  | 21 | 1.5 | 0.54 | 1.1 | 3 | 1.5 | 3.3 | 4.1 | 2.9 | 2.7 | 0.64 | 2.8 | 280 | CN1C2CC1CN(c1ccc3nc4n(c3c1)C13CCC(CN(CCOc5c(cnn5C)-c5cc(cn(C)c5=O)C(=O)N4)C1)C3)C2 (single isomer, unassigned) [Example A98B]
5 | 10 | 3.5 | 4.6 | 11 | 46 | 3640 | 3530 | 15 |  | 4.6 |  | 7.9 | 94 | 59 | 8.4 | 7.7 | 1.2 | 11 |  | CN(C)C1CN(c2ccc3nc4n(c3c2)C23CCC(CN(CCOc5c(cnn5C)-c5cc(cn(C)c5=O)C(=O)N4)C2)C3)CC1(F)F (single isomer, unassigned) [Example A99B]
6 | > 5000 | 1280 | 1390 | > 5000 | 568 |  | > 5000 | 503 | 795 | 675 | 1000 | 473 | 4680 | > 5000 | > 5000 | > 5000 | 217 | 402 | 1940 | Cn1ncc2c1OCCN1CC3CCC(C3)(C1)n1c(nc3ccc(N4CCC(N5CCOCC5)C4)cc31)NC(=O)c1cc-2c(=O)n(C)c1 (single isomer, unassigned) [Example A104A]
7 | 6.6 | 6.1 | 4.5 | 13 | 21 | 1010 | 937 | 6.8 | 12 | 12 | 19 | 6.9 | 53 | 33 | 8.5 | 5.9 | 0.74 | 8.2 |  | Cn1ncc2c1OCCN1CC3CCC(C3)(C1)n1c(nc3ccc(N4CCC(N5CCOCC5)C4)cc31)NC(=O)c1cc-2c(=O)n(C)c1 (single isomer, unassigned) [Example A104B]
8 | 1.5 | 1.6 | 1 | 1.8 | 13 |  | 110 | 3.5 | 7.9 | 7 | 15 | 4.9 | 7.3 | 3.8 | 2.2 | 1.7 | 0.76 | 3.8 | 354 | CN1CC2CC1CN2c1ccc2nc3n(c2c1)C12CCC(CN(CCOc4c(cnn4C)-c4cc(cn(C)c4=O)C(=O)N3)C1)C2 (single isomer, unassigned) [Example A105B]
9 | > 5000 | 594 | 446 | > 5000 | 418 | 2500 | > 5000 | 322 | 268 | 316 | 392 | 355 | 1750 | > 5000 | > 5000 | 2820 | 113 | 143 |  | CN1CCN(C2CCN(c3ccc4nc5n(c4c3)C34CCC(CN(CCOc6c(cnn6C)-c6cc(cn(C)c6=O)C(=O)N5)C3)C4)CC2)CC1 (single isomer, unassigned) [Example A106A]
10 | 1.4 | 1.2 | 1 | 2.2 | 7.6 | 732 | 4.1 | 1.4 | 1.1 | 3 | 1.1 | 1.9 | 1.8 | 2.2 | 2.2 | 2 | 0.79 | 2.2 |  | CN1CCN(C2CCN(c3ccc4nc5n(c4c3)C34CCC(CN(CCOc6c(cnn6C)-c6cc(cn(C)c6=O)C(=O)N5)C3)C4)CC2)CC1 (single isomer, unassigned) [Example A106B]

Source: US20260365670A1, “EGFR INHIBITORS AND USES THEREOF” (DIZAL (JIANGSU) PHARMACEUTICAL CO., LTD., priority 2022, published 2026)
